Laboratory results reported in patent US9497970B2, “Pesticide compounds” (priority 2013, dated 2016).

Columns and labels:
Type in all cases: in vivo
[1] = test system: Boll Weevil (Anthonomus grandis); assay: B.3 Boll Weevil (Anthonomus grandis), microtiter plate insect diet; details: 120 h, 800 ppm, sprayed onto insect diet, 5 days, in comparison with untreated controls, read-out: mortality (egg and larval)
In short: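 Compounds in 25% DMSO/water sprayed at several concentrations onto insect diet in microtiter wells holding 5–10 A. grandis eggs, two replicates. Plates kept 5 days at about 25±1 °C and 75±5% RH. Egg and larval mortality scored visually.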

[2] = test system: Diamond Back Moth (Plutella xylostella); assay: B.1 Diamond Back Moth (Plutella xylostella), cabbage leaf dip; details: foliar, 500 ppm, 3rd instar larvae on dipped cabbage leaves, 72 hours after treatment, in comparison with untreated controls, read-out: mortality
In short: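 Cabbage leaves dipped in compound in 1:1 water:acetone with 0.01% Kinetic HV surfactant, air-dried, then infested with ten 3rd-instar larvae on moist filter paper. Mortality scored at 72 h after treatment; feeding damage rated on a 0-100% scale.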

[3] = test system: Mediterranean Fruitfly (Ceratitis capitata); assay: B.6 Mediterranean Fruitfly (Ceratitis capitata), microtiter plate insect diet; details: 120 h, 800 ppm, sprayed onto insect diet, 5 days, in comparison with untreated controls, read-out: mortality (egg and larval)
In short: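 Insect diet with 50-80 C. capitata eggs sprayed with compounds formulated in 75% water/25% DMSO, at different concentrations, two replications. Incubation at about 28±1° C and 80±5% relative humidity for 5 days, then egg and larval mortality assessed visually.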

[4] = test system: Green Peach Aphid (Myzus persicae); assay: B.9 Green Peach Aphid (Myzus persicae), sprayed bell pepper plants; details: 120 h, infested bell pepper plants sprayed, after 5 days, in comparison with untreated controls
Protocol: B.9 Green Peach Aphid (Myzus persicae)
(§1) The active compounds were formulated by a Tecan liquid handler in 100% cyclohexa none as a 10,000 ppm solution supplied in tubes. The 10,000 ppm solution was serially diluted in 100% cyclohexanone to make interim solutions. These served as stock solutions for which final dilutions were made by the Tecan in 50% acetone:50% water (v/v) into 5 or 10 ml glass vials. A nonionic surfactant (Kinetic®) was included in the solution at a volume of 0.01% (v/v). The vials were then inserted into an automated electrostatic sprayer equipped with an atomizing nozzle for application to plants/insects.
Bell pepper plants at the first true-leaf stage were infested prior to treatment by placing heavily infested leaves from the main colony on top of the treatment plants. Aphids were allowed to transfer overnight to accomplish an infestation of 30-50 aphids per plant and the host leaves were removed. The infested plants were then sprayed by an automated electrostatic plant sprayer equipped with an atomizing spray nozzle. The plants were dried in the sprayer fume hood, removed, and then maintained in a growth room under fluorescent lighting in a 24-hr photoperiod at about 25° C. and about 20-40% relative humidity. Aphid mortality on the treated plants, relative to mortality on untreated control plants, was determined after 5 days.

[5] = test system: Tobacco Budworm (Heliothis virescens); assay: B.7 Tobacco Budworm (Heliothis virescens) I, microtiter plate insect diet; details: 120 h, 800 ppm, sprayed onto insect diet, 5 days, in comparison with untreated controls, read-out: mortality (egg and larval)
In short: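 96-well plates with insect diet and 15-25 H. virescens eggs; compounds in 75% water/25% DMSO sprayed onto diet at several concentrations, two replicates. Plates held at about 28±1° C. and 80±5% relative humidity for 5 days, then egg and larval mortality scored visually.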

[6] = test system: Yellow Fever Mosquito (Aedes aegypti); assay: whole plant or invertebrate; details: 48 h, freshly hatched larvae in tap water, 2 days, in comparison with untreated controls, read-out: mortality (larval)
Protocol: B.11 Yellow Fever Mosquito (Aedes aegypti)
For evaluating control of yellow fever mosquito (Aedes aegypti) the test unit consisted of 96-well-microtiter plates containing 200 μl of tap water per well and 5-15 freshly hatched A. aegypti larvae.
The active compounds were formulated using a solution containing 75% (v/v) water and 25% (v/v) DMSO. Different concentrations of formulated compounds or mixtures were sprayed onto the insect diet at 2.5 μl, using a custom built micro atomizer, at two replications.

[7] = test system: Orchid thrips (dichromothrips corbetti); assay: B.12 Orchid thrips (dichromothrips corbetti), floral-immersion technique; details: adult thrips on dipped orchid petals, 72 hours after treatment, in comparison with untreated controls
Protocol: B.12 Orchid thrips (dichromothrips corbetti)
Dichromothrips corbetti adults used for bioassay were obtained from a colony maintained continuously under laboratory conditions. For testing purposes, the test compound is diluted in a 1:1 mixture of acetone:water (vol:vol), plus Kinetic HV at a rate of 0.01% v/v.
Thrips potency of each compound was evaluated by using a floral-immersion technique. All petals of individual, intact orchid flowers were dipped into treatment solution and allowed to dry in Petri dishes. Treated petals were placed into individual resealable plastic along with about 20 adult thrips. All test arenas were held under continuous light and a temperature of about 28° C. for duration of the assay. After 3 days, the numbers of live thrips were counted on each petal. The percent mortality was recorded 72 hours after treatment.

[8] = test system: Southern Armyworm (Spodoptera eridania), 2nd Instar Larvae; assay: B.10 Southern Armyworm (Spodoptera eridania), 2nd Instar Larvae, sprayed lima bean plants; details: 96 h, 300 ppm, larvae on sprayed lima bean plants, 4 days after treatment, in comparison with untreated controls, read-out: mortality
Protocol: B.10 Southern Armyworm (Spodoptera eridania), 2nd Instar Larvae
as §1, with “cyclohexanone” for “cyclohexa none”
Lima bean plants (variety Sieva) were grown 2 plants to a pot and selected for treatment at the 1st true leaf stage. Test solutions were sprayed onto the foliage by an automated electrostatic plant sprayer equipped with an atomizing spray nozzle. The plants were dried in the sprayer fume hood and then removed from the sprayer. Each pot was placed into perforated plastic bags with a zip closure. About 10 to 11 armyworm larvae were placed into the bag and the bags zipped closed. Test plants were maintained in a growth room at about 25° C. and about 20-40% relative humidity for 4 days, avoiding direct exposure to fluorescent light (24 hour photoperiod) to prevent trapping of heat inside the bags. Mortality and reduced feeding were assessed 4 days after treatment, compared to untreated control plants.

Cc1ccc(NC(=S)N/N=C/c2ccc3c(ccc4c3ncn4-c3ccc(OC(F)(F)F)cc3)c2)c(C)c1 [C-2, 1-(2,4-dimethylphenyl)-3-[(E)-[3-[4-(trifluoromethoxy)phenyl]benzo[e]benzimidazol-7-yl]methyleneamino] thiourea]
≥ 75%: mortality at 800 ppm [1] | mortality at 500 ppm [2] | mortality at 800 ppm [3] | mortality at 800 ppm [4] | mortality at 800 ppm [5]

Cc1cc(Br)cc(C)c1NC(=S)N/N=C/c1ccc2c(ccc3c2ncn3-c2ccc(OC(F)(F)F)cc2)c1 [C-4, 1-(4-bromo-2,6-dimethyl-phenyl)-3-[(E)-[3-[4-(trifluoromethoxy)phenyl]benzo[e]benzimidazol-7-yl]methyleneamino]thiourea]
≥ 75%: mortality at 800 ppm [6] | mortality at 500 ppm [7] | mortality at 800 ppm [1] | mortality at 500 ppm [2] | mortality at 800 ppm [3] | mortality at 800 ppm [4] | mortality at 800 ppm [5]

Cc1cccc(C)c1NC(=S)N/N=C/c1ccc2c(c1)CCc1c-2noc1-c1ccc(OC(F)(F)F)cc1 [C-7, 1-(2,6-dimethylphenyl)-3-[(E)-[3-[4-(trifluoromethoxy)phenyl]-4,5-dihydrobenzo[g][2,1]benzoxazol-7-yl]methyleneamino]thiourea]
≥ 75%: mortality at 500 ppm [7] | mortality at 800 ppm [4] | mortality at 800 ppm [5]

COc1ccc(C)cc1NC(=S)N/N=C/c1ccc2c(ccc3c2ncn3-c2ccc(OC(F)(F)F)cc2)c1 [C-25, 1-(2-methoxy-5-methyl-phenyl)-3-[(E)-[3-[4-(trifluoromethoxy)phenyl]benzo [e]benzimidazol-7-yl]methyleneamino] thiourea]
≥ 75%: mortality at 800 ppm [1] | mortality at 800 ppm [3] | mortality at 300 ppm [8] | mortality at 800 ppm [4]

O=[N+]([O-])c1ccccc1NC(=S)N/N=C/c1ccc2c(ccc3c2ncn3-c2ccc(OC(F)(F)F)cc2)c1 [C-31, 3-(2-nitrophenyl)-1-[[3-[4-(trifluoromethoxy)phenyl]-9aH-benzo[e]benzimidazol-7-ylidene]methylimino] isothiourea]
≥ 75%: mortality at 800 ppm [1] | mortality at 800 ppm [4] | mortality at 800 ppm [5]

FC(F)(F)Oc1ccc(-n2nnc3c4ccc(/C=N/NC(=S)Nc5c(Cl)cccc5Cl)cc4ccc32)cc1 [C-57, 1-(2,6-dichlorophenyl)-3-[(E)-[3-[4-(trifluoromethoxy)phenyl]benzo[e]benzotriazol-7-yl]methyleneamino] thiourea]
≥ 75%: mortality at 800 ppm [4]

Cc1cccc(C)c1NC(=S)N/N=C/c1ccc2c(ccc3c(-c4ccc(OC(F)(F)F)cc4)onc32)c1 [C-84, 1-(2,6-dimethylphenyl)-3-[(E)-[3-[4-(trifluoromethoxy)phenyl]benzo[g][2,1]benzoxazol-7-yl]methyleneamino] thiourea]
≥ 75%: mortality at 800 ppm [3] | mortality at 800 ppm [4] | mortality at 800 ppm [5]

Cc1cccc(C)c1NC(=S)N(C)/N=C/c1ccc2c(ccc3c2ncn3-c2ccc(OC(F)(F)F)cc2)c1 [C-85, 3-(2,6-dimethylphenyl)-1-methyl-1-[(E)-[3-[4-(trifluoromethoxy)phenyl]benzo [e]benzimidazol-7-yl]methyleneamino] thiourea]
≥ 75%: mortality at 800 ppm [6] | mortality at 500 ppm [7] | mortality at 800 ppm [1] | mortality at 500 ppm [2] | mortality at 800 ppm [3] | mortality at 300 ppm [8] | mortality at 800 ppm [5]

CCc1cccc(C)c1NC(=S)N/N=C/c1ccc2c(ccc3c(-c4ccc(OC(F)(F)F)cc4)n(C)nc32)c1 [C-92, 1-(2-ethyl-6-methyl-phenyl)-3-[(E)-[2-methyl-3-[4-(trifluoromethoxy)phenyl]benzo[g]indazol-7-yl]methyleneamino] thiourea]
≥ 75%: mortality at 800 ppm [6] | mortality at 500 ppm [7] | mortality at 800 ppm [1] | mortality at 500 ppm [2] | mortality at 800 ppm [3] | mortality at 800 ppm [4] | mortality at 800 ppm [5]

Cc1cccc([S+](C)[O-])c1NC(=S)N/N=C/c1ccc2c(ccc3c2ncn3-c2ccc(OC(F)(F)F)cc2)c1 (stereo not shown) [C-104, 1-(2-methyl-6-methylsulfinyl-phenyl)-3-[(E)-[3-[4-(trifluoromethoxy)phenyl]benzo[e]benzimidazol-7-yl]methyleneamino]thiourea]
≥ 75%: mortality at 800 ppm [6] | mortality at 500 ppm [7] | mortality at 800 ppm [1] | mortality at 500 ppm [2] | mortality at 800 ppm [3] | mortality at 300 ppm [8] | mortality at 800 ppm [5]

Cc1cccc(C)c1NC(=S)N/N=C/c1ccc2c(c1)CCc1c-2nn(C)c1-c1ccc(OC(F)(F)F)cc1 [C-107, 1-(2,6-dimethylphenyl)-3-[(E)-[2-methyl-3-[4-(trifluoromethoxy)phenyl]-4,5-dihydrobenzo[g]indazol-7-yl]methyleneamino]thiourea]
≥ 75%: mortality at 800 ppm [6] | mortality at 500 ppm [7] | mortality at 800 ppm [1] | mortality at 500 ppm [2] | mortality at 800 ppm [3] | mortality at 300 ppm [8] | mortality at 800 ppm [5]

Cc1cccc(C)c1NC(=S)N/N=C/c1ccc2c(ccc3c2ncn3-c2ccc(C(F)(F)C(F)(F)F)cc2)c1 [C-110, 1-(2,6-dimethylphenyl)-3-[(E)-[3-[4-(1,1,2,2,2-pentafluoroethyl)phenyl]benzo[e]benzimidazol-7-yl]methyleneamino]thiourea]
≥ 75%: mortality at 800 ppm [6] | mortality at 800 ppm [1] | mortality at 800 ppm [3] | mortality at 800 ppm [4] | mortality at 800 ppm [5]

Cc1cccc(C)c1NC(=S)N/N=C/c1ccc2c(ccc3c2ncn3-c2ccc(C(F)(F)F)cc2F)c1 [C-113, 1-(2,6-dimethylphenyl)-3-[[3-[2-fluoro-4-(trifluoromethyl)phenyl]-3aH-benzo[e]benzimidazol-7-ylidene]methylimino]thiourea]
≥ 75%: mortality at 800 ppm [6] | mortality at 800 ppm [1] | mortality at 800 ppm [3] | mortality at 800 ppm [4] | mortality at 800 ppm [5]
